Tests used:
[1] = molecular target: GDP-bound KRAS protein (aa 1-169), containing both G12C and C118A amino acid substitutions (Homo sapiens, UniProt P01116, C118A/G12C); test: Coupled nucleotide exchange assay (SOS-mediated, AlphaScreen); assay type: biochemical; settings: 5 min compound pre-incubation
[2] = test system: Phosphorylation of ERK1/2 in MIA PaCa-2 cells; test: Phospho-ERK1/2 MSD assay in MIA PaCa-2 cells; assay type: cell-based; settings: Homo sapiens, MIA PaCa-2, 2 h, read-out: p-ERK IC50 (2 h; MIA PaCa-2), 2 h compound treatment
In short: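 MSD electrochemiluminescence readout of phospho-ERK1/2 in whole-cell lysates, IC50 by 4-parameter logistic fit. Compound titrations were applied for 2 or 4 h at 37 °C, 5% CO2, followed by 10 ng/mL EGF stimulation for 10 min before lysis.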

GDP-bound KRAS protein (aa 1-169), containing both G12C and C118A amino acid substitutions, sequence (P01116 1-169 isoform P01116-2 G12C/C118A): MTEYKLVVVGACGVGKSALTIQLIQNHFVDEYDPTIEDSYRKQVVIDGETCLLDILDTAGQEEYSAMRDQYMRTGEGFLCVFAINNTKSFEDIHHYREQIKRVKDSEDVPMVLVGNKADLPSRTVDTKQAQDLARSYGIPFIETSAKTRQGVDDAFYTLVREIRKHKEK

Compound	Coupled exchange IC50 (5 min) [1]	IC50 [2] [µM]
C=CC(=O)N1CCN(c2nc(=O)n(-c3ccccc3C(C)C)c3nc(-c4ccccc4OC(F)F)c(Cl)cc23)[C@@H](C)C1 [Example 56-10, 6-chloro-7-(2-(difluoromethoxy)phenyl)-4-((2S)-2-methyl-4-(2-propenoyl)-1-piperazinyl)-1-(2-(2-propanyl)phenyl)pyrido[2,3-d]pyrimidin-2(1H)-one]	0.332 | nda μM	0.26
C=CC(=O)N1CCN(c2nc(=O)n(-c3c(C)ccnc3CC)c3nc(-c4c(O)cccc4F)c(F)cc23)[C@@H](C)C1 [Example 57-1, 1-(2-Ethyl-4-methyl-3-pyridinyl)-6-fluoro-7-(2-fluoro-6-hydroxyphenyl)-4-((2S)-2-methyl-4-(2-propenoyl)-1-piperazinyl)pyrido[2,3-d]pyrimidin-2(1H)-one]	0.835 | nda μM	0.171
C=CC(=O)N1CCN(c2nc(=O)n(-c3nccnc3C(C)C)c3nc(-c4ccccc4F)c(F)cc23)[C@@H](C)C1 [Example 57-2, 6-fluoro-7-(2-fluorophenyl)-4-((2S)-2-methyl-4-(2-propenoyl)-1-piperazinyl)-1-(3-(2-propanyl)-2-pyrazinyl)pyrido[2,3-d]pyrimidin-2(1H)-one]	0.74 | nda μM	0.3
C=CC(=O)N1CCN(c2nc(=O)n(-c3nccnc3C(C)C)c3nc(-c4c(O)cccc4F)c(F)cc23)[C@@H](C)C1 [Example 57-3, 6-fluoro-7-(2-fluoro-6-hydroxyphenyl)-4-((2S)-2-methyl-4-(2-propenoyl)-piperazinyl)-1-(3-(2-propanyl)-2-pyrazinyl)pyrido[2,3-d]pyrimidin-2(1H)-one]	0.664 | nda μM	0.241
C=CC(=O)N1CCN(c2nc(=O)n(-c3c(C(C)C)ncnc3C(C)C)c3nc(-c4c(O)cccc4F)c(F)cc23)[C@@H](C)C1 [Example 57-4, 1-(4,6-di(2-propanyl)-5-pyrimidinyl)-6-fluoro-7-(2-fluoro-6-hydroxyphenyl)-4-((2S)-2-methyl-4-(2-propenoyl)-1-piperazinyl)pyrido[2,3-d]pyrimidin-2(1H)-one]	0.1 | nda μM	0.061
C=CC(=O)N1CCN(c2nc(=O)n(-c3c(C(C)C)ncnc3C(C)C)c3nc(-c4ccccc4F)c(F)cc23)[C@@H](C)C1 [Example 57-5, 1-(4,6-di(2-propanyl)-5-pyrimidinyl)-6-fluoro-7-(2-fluorophenyl)-4-((2S)-2-methyl-4-(2-propenoyl)-1-piperazinyl)pyrido[2,3-d]pyrimidin-2(1H)-one]	0.221 | nda μM	0.107
C=CC(=O)N1CCN(c2nc(=O)n(-c3ncccc3C(C)C)c3nc(-c4ccccc4F)c(F)cc23)[C@@H](C)C1 [Example 57-9, 6-fluoro-7-(2-fluorophenyl)-4-((2S)-2-methyl-4-(2-propenoyl)-1-piperazinyl)-1-(3-(2-propanyl)-2-pyridinyl)pyrido[2.3-d]pyrimidin-2(1H)-one]	0.752 | nda μM	0.239
C=CC(=O)N1CCN(c2nc(=O)n(-c3ncccc3C(C)C)c3nc(-c4c(O)cccc4F)c(F)cc23)[C@@H](C)C1 [Example 57-10, 6-fluoro-7-(2-fluoro-6-hydroxyphenyl)-4-((2S)-2-methyl-4-(2-propenoyl)-1-piperazinyl)-1-(3-(2-propanyl)-2-pyridinyl)pyrido[2,3-d]pyrimidin-2(1H)-one]	0.452 | nda μM	0.105
C=CC(=O)N1CCN(c2nc(=O)n(-c3scnc3C(C)C)c3nc(-c4c(O)cccc4F)c(F)cc23)[C@@H](C)C1 [Example 57-11, 6-fluoro-7-(2-fluoro-6-hydroxyphenyl)-4-((2S)-2-methyl-4-(2-propenoyl)-1-piperazinyl)-1-(4-(2-propanyl)-1,3-thiazol-5-yl)pyrido[2,3-d]pyrimidin-2(1H)-one]	0.24 | nda μM	0.265
C=CC(=O)N1CCN(c2nc(=O)n(-c3scnc3C(C)C)c3nc(-c4ccccc4F)c(F)cc23)[C@@H](C)C1 [Example 57-12, 6-fluoro-7-(2-fluorophenyl)-4-((2S)-2-methyl-4-(2-propenoyl)-1-piperazinyl)-1-(4-(2-propanyl)-1,3-thiazol-5-yl)pyrido[2,3-d]pyrimidin-2(1H)-one]	0.472 | nda μM	0.539
C=CC(=O)N1CCN(c2nc(=O)n(-c3c(C)cccc3C(C)(C)C)c3nc(-c4c(O)cccc4F)c(F)cc23)[C@@H](C)C1 [Example 57-17, 6-fluoro-7-(2-fluoro-6-hydroxyphenyl)-1-(2-methyl-6-(2-methyl-2-propanyl)phenyl)-4-((2S)-2-methyl-4-(2-propenoyl)-1-piperazinyl)pyrido[2,3-d]pyrimidin-2(1H)-one]	0.574 | nda μM	1.44
C=CC(=O)N1CCN(c2nc(=O)n(-c3ccccc3C(C)(C)C)c3nc(-c4c(O)cccc4F)c(F)cc23)[C@@H](C)C1 [Example 58-1, 6-Fluoro-7-(2-fluoro-6-hydroxyphenyl)-1-(2-(2-methyl-2-propanyl)phenyl)-4-((2S)-2-methyl-4-(2-propenoyl)-1-piperazinyl)pyrido[2,3-d]pyrimidin-2(1H)-one]	0.661 | nda μM	0.696
C=CC(=O)N1CCN(c2nc(=O)n(-c3c(C(F)(F)F)ccnc3C(C)C)c3nc(-c4c(O)cccc4F)c(F)cc23)[C@@H](C)C1 [Example 58-3, 6-fluoro-7-(2-fluoro-6-hydroxyphenyl)-4-((2S)-2-methyl-4-(2-propenoyl)-1-piperazinyl)-1-(2-(2-propanyl)-4-(trifluoromethyl)-3-pyridinyl)pyrido[2,3-d]pyrimidin-2(1H)-one]	0.261 | nda μM	0.181

Second part, the compound after the results:

Coupled exchange IC50 (5 min) [1]	IC50 [2] [µM]	Compound
0.395 | nda μM	0.183	C=CC(=O)N1CCN(c2nc(=O)n(-c3c(C)ccnc3C(C)C)c3nc(-c4ccccc4F)c(F)cc23)[C@@H](C)C1 [Example 58-4, 6-fluoro-7-(2-fluorophenyl)-1-(4-methyl-2-(2-propanyl)-3-pyridinyl)-4-((2S)-2-methyl-4-(2-propenoyl)-1-piperazinyl)pyrido[2,3-d]pyrimidin-2(1H)-one]
0.484 | nda μM	1.99	C=CC(=O)N1CCN(c2nc(=O)n(-c3c(C)ccnc3C(C)C)c3nc(-c4cc(O)ccc4F)c(F)cc23)[C@@H](C)C1 [Example 58-5, 6-fluoro-7-(2-fluoro-5-hydroxyphenyl)-1-(4-methyl-2-(2-propanyl)-3-pyridinyl)-4-((2S)-2-methyl-4-(2-propenoyl)-1-piperazinyl)pyrido[2,3-d]pyrimidin-2(1H)-one]
0.623 | nda μM	0.842	C=CC(=O)N1CCN(c2nc(=O)n(-c3c(C)ccnc3C(C)C)c3nc(-c4cc(N)ccc4F)c(F)cc23)[C@@H](C)C1 [Example 58-6]
0.072 | nda μM	1.99	C=CC(=O)N1CCN(c2nc(=O)n(-c3c(C)ccnc3C(C)C)c3nc(-c4cc(O)cc(Cl)c4Cl)c(F)cc23)[C@@H](C)C1 [Example 58-7, 7-(2,3-dichloro-5-hydroxyphenyl)-6-fluoro-1-(4-methyl-2-(2-propanyl)-3-pyridinyl)-4-((2S)-2-methyl-4-(2-propenoyl)-1-piperazinyl)pyrido[2,3-d]pyrimidin-2(1H)-one]
0.393 | nda μM	0.437	C=CC(=O)N1CCN(c2nc(=O)n(-c3c(C)ccnc3C(C)C)c3nc(-c4cc(N)ccc4Cl)c(F)cc23)[C@@H](C)C1 [Example 58-8, 7-(5-amino-2-chlorophenyl)-6-fluoro-1-(4-methyl-2-(2-propanyl)-3-pyridinyl)-4-((2S)-2-methyl-4-(2-propenoyl)-1-piperazinyl)pyrido[2,3-d]pyrimidin-2(1H)-one]
0.095 | nda μM	0.22	C=CC(=O)N1CCN(c2nc(=O)n(-c3c(C)ccnc3C(C)C)c3nc(-c4c(O)cccc4Cl)c(F)cc23)[C@@H](C)C1 [Example 58-9, 7-(2-chloro-6-hydroxyphenyl)-6-fluoro-1-(4-methyl-2-(2-propanyl)-3-pyridinyl)-4-((2S)-2-methyl-4-(2-propenoyl)-1-piperazinyl)pyrido[2,3-d]pyrimidin-2(1H)-one]
0.445 | nda μM	0.433	C=CC(=O)N1CCN(c2nc(=O)n(-c3c(C)ccnc3C(C)C)c3nc(-c4ccc(F)cc4F)c(F)cc23)[C@@H](C)C1 [Example 58-10, 7-(2,4-difluorophenyl)-6-fluoro-1-(4-methyl-2-(2-propanyl)-3-pyridinyl)-4-((2S)-2-methyl-4-(2-propenoyl)-1-piperazinyl)pyrido[2,3-d]pyrimidin-2(1H)-one]
0.953 | nda μM	0.508	C=CC(=O)N1CCN(c2nc(=O)n(-c3c(C)ncnc3C(C)C)c3nc(-c4ccccc4F)c(F)cc23)[C@@H](C)C1 [Example 58-12, 6-fluoro-7-(2-fluorophenyl)-1-(4-methyl-6-(2-propanyl)-5-pyrimidinyl)-4-((2S)-2-methyl-4-(2-propenoyl)-1-piperazinyl)pyrido[2,3-d]pyrimidin-2(1H)-one]
0.809 | nda μM	0.263	C=CC(=O)N1CCN(c2nc(=O)n(-c3c(C)cccc3C3CC3)c3nc(-c4c(O)cccc4F)c(F)cc23)[C@@H](C)C1 [Example 58-13, 1-(2-cyclopropyl-6-methylphenyl)-6-fluoro-7-(2-fluoro-6-hydroxyphenyl)-4-((2S)-2-methyl-4-(2-propenoyl)-1-piperazinyl)pyrido[2,3-d]pyrimidin-2(1H)-one]

Source: US11090304B2 (Amgen Inc., priority 2018, dated 2021)
